Test results reported in the kinase profiling compilation of Christmann-Franck et al. (2016).

Legend:
Experiment in all cases: KINOMEscan competition binding
Conditions in all cases: compound 10.0 µM
ACVR1B (human) = ACVR1B (human) (UniProt P36896)
ACVR2B (human) = ACVR2B (human) (UniProt Q13705)
ALK (human) = ALK (human) (UniProt Q9UM73)
CAMKK2 (human) = CAMKK2 (human) (UniProt Q96RR4)
CDK19 (human) = CDK19 (human) (UniProt Q9BWU1)
CDK3 (human) = CDK3 (human) (UniProt Q00526)
CHEK2 (human) = CHEK2 (human) (UniProt O96017)
CHUK (human) = CHUK (human) (UniProt O15111)
Chain of CHUK (human) (O15111 whole entry, looked up): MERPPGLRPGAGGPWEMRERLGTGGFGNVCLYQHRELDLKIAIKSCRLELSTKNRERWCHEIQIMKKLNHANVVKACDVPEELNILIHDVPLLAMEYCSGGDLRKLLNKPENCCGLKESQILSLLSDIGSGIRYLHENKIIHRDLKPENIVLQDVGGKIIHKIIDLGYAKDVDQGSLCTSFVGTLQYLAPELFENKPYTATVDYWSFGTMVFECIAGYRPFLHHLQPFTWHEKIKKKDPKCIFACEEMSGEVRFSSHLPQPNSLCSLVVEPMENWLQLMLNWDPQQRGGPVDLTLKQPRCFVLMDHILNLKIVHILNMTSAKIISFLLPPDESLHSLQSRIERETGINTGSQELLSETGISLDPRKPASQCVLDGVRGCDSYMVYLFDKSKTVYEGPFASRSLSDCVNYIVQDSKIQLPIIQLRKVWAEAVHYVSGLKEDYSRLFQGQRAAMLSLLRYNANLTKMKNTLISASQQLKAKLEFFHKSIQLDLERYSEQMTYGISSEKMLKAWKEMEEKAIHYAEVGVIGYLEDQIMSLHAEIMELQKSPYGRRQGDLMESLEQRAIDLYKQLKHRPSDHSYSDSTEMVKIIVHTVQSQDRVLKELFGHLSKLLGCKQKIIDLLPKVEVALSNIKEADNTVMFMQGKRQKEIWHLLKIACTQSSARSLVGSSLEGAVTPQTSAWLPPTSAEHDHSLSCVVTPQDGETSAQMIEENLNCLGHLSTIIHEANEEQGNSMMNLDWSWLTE

CLK2 (human) = CLK2 (human) (UniProt P49760)
EPHA2 (human) = EPHA2 (human) (UniProt P29317)
EPHA4 (human) = EPHA4 (human) (UniProt P54764)
Chain of EPHA4 (human) (P54764 whole entry, looked up): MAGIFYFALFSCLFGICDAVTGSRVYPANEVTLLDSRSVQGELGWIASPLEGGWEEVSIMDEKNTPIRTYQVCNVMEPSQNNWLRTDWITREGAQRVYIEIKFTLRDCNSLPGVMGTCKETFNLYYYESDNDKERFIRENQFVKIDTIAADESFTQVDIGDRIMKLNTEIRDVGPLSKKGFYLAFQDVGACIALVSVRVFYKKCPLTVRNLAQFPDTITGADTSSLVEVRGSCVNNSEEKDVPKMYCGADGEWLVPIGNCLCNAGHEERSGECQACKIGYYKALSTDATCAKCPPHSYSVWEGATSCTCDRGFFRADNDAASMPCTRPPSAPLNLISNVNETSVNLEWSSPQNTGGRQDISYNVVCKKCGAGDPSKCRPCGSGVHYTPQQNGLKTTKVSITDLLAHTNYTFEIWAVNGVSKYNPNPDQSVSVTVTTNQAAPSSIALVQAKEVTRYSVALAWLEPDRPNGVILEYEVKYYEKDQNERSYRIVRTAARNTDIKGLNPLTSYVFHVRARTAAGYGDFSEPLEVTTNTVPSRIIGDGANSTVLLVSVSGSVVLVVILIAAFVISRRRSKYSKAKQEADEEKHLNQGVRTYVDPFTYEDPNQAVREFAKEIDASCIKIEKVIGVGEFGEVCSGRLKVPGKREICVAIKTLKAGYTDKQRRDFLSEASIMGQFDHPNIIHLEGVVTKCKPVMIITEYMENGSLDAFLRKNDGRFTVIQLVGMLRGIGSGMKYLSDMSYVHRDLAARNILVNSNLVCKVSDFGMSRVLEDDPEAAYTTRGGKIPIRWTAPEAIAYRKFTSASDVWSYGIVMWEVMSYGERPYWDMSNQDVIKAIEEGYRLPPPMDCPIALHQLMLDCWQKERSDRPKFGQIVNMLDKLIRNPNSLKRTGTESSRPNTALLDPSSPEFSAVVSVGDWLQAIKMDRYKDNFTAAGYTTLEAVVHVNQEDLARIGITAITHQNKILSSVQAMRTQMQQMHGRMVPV

FYN (human) = FYN (human) (UniProt P06241)
GSK3A (human) = GSK3A (human) (UniProt P49840)
IKBKE (human) = IKBKE (human) (UniProt Q14164)
Chain of IKBKE (human) (Q14164 whole entry, looked up): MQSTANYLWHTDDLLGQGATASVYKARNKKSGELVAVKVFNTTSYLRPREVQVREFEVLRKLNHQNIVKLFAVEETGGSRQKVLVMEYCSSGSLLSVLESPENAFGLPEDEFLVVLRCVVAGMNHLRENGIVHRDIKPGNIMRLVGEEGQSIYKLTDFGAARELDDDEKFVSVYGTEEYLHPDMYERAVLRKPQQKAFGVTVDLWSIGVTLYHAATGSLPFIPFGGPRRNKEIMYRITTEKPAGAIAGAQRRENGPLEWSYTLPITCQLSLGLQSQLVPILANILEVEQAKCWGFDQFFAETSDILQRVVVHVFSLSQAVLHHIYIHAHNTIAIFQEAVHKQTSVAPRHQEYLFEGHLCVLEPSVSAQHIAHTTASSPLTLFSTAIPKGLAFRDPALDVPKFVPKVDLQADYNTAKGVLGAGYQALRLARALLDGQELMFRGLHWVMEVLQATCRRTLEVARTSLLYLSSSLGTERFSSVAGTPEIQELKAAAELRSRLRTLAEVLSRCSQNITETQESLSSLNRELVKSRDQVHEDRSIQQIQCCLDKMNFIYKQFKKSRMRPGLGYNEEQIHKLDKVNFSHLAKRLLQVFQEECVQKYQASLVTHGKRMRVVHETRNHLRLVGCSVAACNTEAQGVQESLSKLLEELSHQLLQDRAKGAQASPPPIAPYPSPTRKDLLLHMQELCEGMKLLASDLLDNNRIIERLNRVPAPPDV

KDR (human) = KDR (human) (UniProt P35968)
LTK (human) = LTK (human) (UniProt P29376)
MAP2K1 (human) = MAP2K1 (human) (UniProt Q02750)
Chain of MAP2K1 (human) (Q02750 whole entry, looked up): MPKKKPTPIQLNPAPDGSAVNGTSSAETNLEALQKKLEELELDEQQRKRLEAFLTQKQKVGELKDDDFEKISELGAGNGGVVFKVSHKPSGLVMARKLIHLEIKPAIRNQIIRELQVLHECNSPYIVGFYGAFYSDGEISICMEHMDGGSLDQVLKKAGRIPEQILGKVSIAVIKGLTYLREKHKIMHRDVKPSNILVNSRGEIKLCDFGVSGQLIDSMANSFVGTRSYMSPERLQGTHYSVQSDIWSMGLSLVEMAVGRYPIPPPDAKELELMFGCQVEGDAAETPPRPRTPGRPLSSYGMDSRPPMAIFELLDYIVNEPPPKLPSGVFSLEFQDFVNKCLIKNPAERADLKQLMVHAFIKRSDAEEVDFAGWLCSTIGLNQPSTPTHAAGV

MAP2K3 (human) = MAP2K3 (human) (UniProt P46734)
MAP3K3 (human) = MAP3K3 (human) (UniProt Q99759)
MAP3K5 (human) = MAP3K5 (human) (UniProt Q99683)
Chain of MAP3K5 (human) (Q99683 whole entry, looked up): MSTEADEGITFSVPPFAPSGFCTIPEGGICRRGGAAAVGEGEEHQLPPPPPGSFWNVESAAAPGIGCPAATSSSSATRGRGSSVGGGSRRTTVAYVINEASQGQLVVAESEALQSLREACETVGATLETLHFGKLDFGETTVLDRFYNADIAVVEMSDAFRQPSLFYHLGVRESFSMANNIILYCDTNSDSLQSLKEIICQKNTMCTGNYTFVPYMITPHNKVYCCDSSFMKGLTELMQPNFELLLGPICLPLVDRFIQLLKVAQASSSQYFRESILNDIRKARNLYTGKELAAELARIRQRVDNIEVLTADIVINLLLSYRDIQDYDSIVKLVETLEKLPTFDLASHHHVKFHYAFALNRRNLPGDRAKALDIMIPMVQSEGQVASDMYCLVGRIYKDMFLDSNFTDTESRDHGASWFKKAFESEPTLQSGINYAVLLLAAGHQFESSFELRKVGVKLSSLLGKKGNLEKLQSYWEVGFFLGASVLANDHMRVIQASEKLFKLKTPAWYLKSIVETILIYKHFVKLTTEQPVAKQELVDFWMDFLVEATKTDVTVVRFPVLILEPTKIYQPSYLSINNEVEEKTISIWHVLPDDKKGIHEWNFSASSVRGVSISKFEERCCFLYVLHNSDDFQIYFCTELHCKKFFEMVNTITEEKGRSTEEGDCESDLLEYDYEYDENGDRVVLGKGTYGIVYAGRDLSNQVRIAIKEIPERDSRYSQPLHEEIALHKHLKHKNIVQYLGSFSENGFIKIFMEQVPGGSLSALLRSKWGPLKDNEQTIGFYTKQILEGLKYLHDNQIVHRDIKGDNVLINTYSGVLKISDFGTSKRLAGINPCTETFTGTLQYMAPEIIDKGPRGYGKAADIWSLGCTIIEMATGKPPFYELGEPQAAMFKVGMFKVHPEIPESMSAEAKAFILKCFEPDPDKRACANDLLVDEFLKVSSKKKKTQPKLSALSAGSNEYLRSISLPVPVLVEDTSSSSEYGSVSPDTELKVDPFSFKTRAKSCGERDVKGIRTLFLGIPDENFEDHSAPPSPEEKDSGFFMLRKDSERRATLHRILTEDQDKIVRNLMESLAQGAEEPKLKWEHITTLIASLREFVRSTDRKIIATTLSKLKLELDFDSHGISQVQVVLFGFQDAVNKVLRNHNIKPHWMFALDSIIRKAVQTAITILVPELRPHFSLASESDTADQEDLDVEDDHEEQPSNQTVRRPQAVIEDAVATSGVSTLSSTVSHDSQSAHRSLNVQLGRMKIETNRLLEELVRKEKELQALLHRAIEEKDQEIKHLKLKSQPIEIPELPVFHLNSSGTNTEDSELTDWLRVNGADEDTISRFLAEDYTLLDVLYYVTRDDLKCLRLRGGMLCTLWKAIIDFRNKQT

MAPK11 (human) = MAPK11 (human) (UniProt Q15759)
MAPK3 (human) = MAPK3 (human) (UniProt P27361)
MAPK9 (human) = MAPK9 (human) (UniProt P45984)
MARK2 (human) = MARK2 (human) (UniProt Q7KZI7)
NEK5 (human) = NEK5 (human) (UniProt Q6P3R8)
PAK2 (human) = PAK2 (human) (UniProt Q13177)
PIP5K1A (human) = PIP5K1A (human) (UniProt Q99755)
PRKD2 (human) = PRKD2 (human) (UniProt Q9BZL6)
PRKX (human) = PRKX (human) (UniProt P51817)
ROCK2 (human) = ROCK2 (human) (UniProt O75116)
RPS6KA5 KD1 (human) = RPS6KA5 KD1 (human) (UniProt O75582)
SGK110 (human) = SGK110 (human) (UniProt P0C264)
SIK1 (human) = SIK1 (human) (UniProt P57059)
SRPK2 (human) = SRPK2 (human) (UniProt P78362)
STK17B (human) = STK17B (human) (UniProt O94768)
STK36 (human) = STK36 (human) (UniProt Q9NRP7)
SYK (human) = SYK (human) (UniProt P43405)
TESK1 (human) = TESK1 (human) (UniProt Q15569)
[1] = biological target: TYK2 JH2 pseudokinase (human) (UniProt P29597)
YES1 (human) = YES1 (human) (UniProt P07947)

Chain of CAMKK2 (human) (Q96RR4 whole entry, looked up): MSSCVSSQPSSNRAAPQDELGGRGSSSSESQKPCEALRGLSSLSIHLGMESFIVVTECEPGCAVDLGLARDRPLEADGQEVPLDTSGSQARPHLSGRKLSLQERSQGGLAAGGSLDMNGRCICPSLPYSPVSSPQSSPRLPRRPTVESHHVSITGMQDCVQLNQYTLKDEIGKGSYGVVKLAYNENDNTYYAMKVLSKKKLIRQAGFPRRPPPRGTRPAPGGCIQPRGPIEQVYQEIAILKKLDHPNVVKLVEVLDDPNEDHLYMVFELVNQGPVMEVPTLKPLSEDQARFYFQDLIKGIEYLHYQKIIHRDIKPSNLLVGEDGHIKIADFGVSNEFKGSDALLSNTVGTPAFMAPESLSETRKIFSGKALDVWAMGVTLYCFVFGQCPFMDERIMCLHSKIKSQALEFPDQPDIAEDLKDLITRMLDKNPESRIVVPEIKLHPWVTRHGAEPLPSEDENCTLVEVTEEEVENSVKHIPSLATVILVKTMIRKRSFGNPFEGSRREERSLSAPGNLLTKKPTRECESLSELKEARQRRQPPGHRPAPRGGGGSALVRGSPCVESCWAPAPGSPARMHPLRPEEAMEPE

| Compound | kinase still bound, per cent of control (ACVR1B (human)) | kinase still bound, per cent of control (ACVR2B (human)) | kinase still bound, per cent of control (ALK (human)) | kinase still bound, per cent of control (CAMKK2 (human)) | kinase still bound, per cent of control (CDK19 (human)) | kinase still bound, per cent of control (CDK3 (human)) | kinase still bound, per cent of control (CHEK2 (human)) | kinase still bound, per cent of control (CHUK (human)) | kinase still bound, per cent of control (CLK2 (human)) | kinase still bound, per cent of control (EPHA2 (human)) | kinase still bound, per cent of control (EPHA4 (human)) | kinase still bound, per cent of control (FYN (human)) | kinase still bound, per cent of control (GSK3A (human)) | kinase still bound, per cent of control (IKBKE (human)) | kinase still bound, per cent of control (KDR (human)) | kinase still bound, per cent of control (LTK (human)) | kinase still bound, per cent of control (MAP2K1 (human)) | kinase still bound, per cent of control (MAP2K3 (human)) | kinase still bound, per cent of control (MAP3K3 (human)) | kinase still bound, per cent of control (MAP3K5 (human)) | also measured |
| --- | --- | --- | --- | --- | --- | --- | --- | --- | --- | --- | --- | --- | --- | --- | --- | --- | --- | --- | --- | --- | --- |
| Cc1ccc(NC(=O)c2cccc(C(C)(C)C#N)c2)cc1Nc1ccc2ncn(C)c(=O)c2c1 | 97% | 100% | 93% | 28% | 35% | 100% | 92% | 72% | 100% | 3.2% | 0% | 3.6% | 100% | 100% | 2.3% | 100% | 100% | 80% | 100% | 100% | kinase still bound, per cent of control (MAPK11 (human)): 0%; kinase still bound, per cent of control (MAPK3 (human)): 100%; kinase still bound, per cent of control (MAPK9 (human)): 1.8%; kinase still bound, per cent of control (MARK2 (human)): 92%; kinase still bound, per cent of control (NEK5 (human)): 33%; kinase still bound, per cent of control (PAK2 (human)): 100%; kinase still bound, per cent of control (PIP5K1A (human)): 100%; kinase still bound, per cent of control (PRKD2 (human)): 99%; kinase still bound, per cent of control (PRKX (human)): 100%; kinase still bound, per cent of control (ROCK2 (human)): 80%; kinase still bound, per cent of control (RPS6KA5 KD1 (human)): 100%; kinase still bound, per cent of control (SGK110 (human)): 100%; kinase still bound, per cent of control (SIK1 (human)): 30%; kinase still bound, per cent of control (SRPK2 (human)): 100%; kinase still bound, per cent of control (STK17B (human)): 100%; kinase still bound, per cent of control (STK36 (human)): 88%; kinase still bound, per cent of control (SYK (human)): 100%; kinase still bound, per cent of control (TESK1 (human)): 100%; kinase still bound, per cent of control [1]: 100%; kinase still bound, per cent of control (YES1 (human)): 4.6% |
| COc1cc(C(=O)NC2CCN(C)CC2)ccc1Nc1ncc2c(n1)N(C1CCCC1)C(C)CC(=O)N2C (stereo not given) | 100% | 100% | 6.2% | 24% | 100% | 100% | 100% | 100% | 6.2% | 100% | 100% | 100% | 100% | 100% | 100% | 100% | 100% | 100% | 100% | 100% | kinase still bound, per cent of control (MAPK11 (human)): 100%; kinase still bound, per cent of control (MAPK3 (human)): 100%; kinase still bound, per cent of control (MAPK9 (human)): 100%; kinase still bound, per cent of control (MARK2 (human)): 100%; kinase still bound, per cent of control (NEK5 (human)): 100%; kinase still bound, per cent of control (PAK2 (human)): 100%; kinase still bound, per cent of control (PIP5K1A (human)): 100%; kinase still bound, per cent of control (PRKD2 (human)): 100%; kinase still bound, per cent of control (PRKX (human)): 100%; kinase still bound, per cent of control (ROCK2 (human)): 100%; kinase still bound, per cent of control (RPS6KA5 KD1 (human)): 100%; kinase still bound, per cent of control (SGK110 (human)): 100%; kinase still bound, per cent of control (SIK1 (human)): 100%; kinase still bound, per cent of control (SRPK2 (human)): 100%; kinase still bound, per cent of control (STK17B (human)): 100%; kinase still bound, per cent of control (STK36 (human)): 100%; kinase still bound, per cent of control (SYK (human)): 100%; kinase still bound, per cent of control (TESK1 (human)): 100%; kinase still bound, per cent of control [1]: 100%; kinase still bound, per cent of control (YES1 (human)): 100% |
